This experiment addresses α-glucosidase (Saccharomyces cerevisiae, UniProt P53341). The experiment is described as follows: α-glucosidase inhibitory activity. Type of experiment: biochemical.

SMILES strings stand for the structures.

As a reminder, the inhibition is the relative decrease from the control value, in per cent.

Chain of α-glucosidase (P53341 whole entry): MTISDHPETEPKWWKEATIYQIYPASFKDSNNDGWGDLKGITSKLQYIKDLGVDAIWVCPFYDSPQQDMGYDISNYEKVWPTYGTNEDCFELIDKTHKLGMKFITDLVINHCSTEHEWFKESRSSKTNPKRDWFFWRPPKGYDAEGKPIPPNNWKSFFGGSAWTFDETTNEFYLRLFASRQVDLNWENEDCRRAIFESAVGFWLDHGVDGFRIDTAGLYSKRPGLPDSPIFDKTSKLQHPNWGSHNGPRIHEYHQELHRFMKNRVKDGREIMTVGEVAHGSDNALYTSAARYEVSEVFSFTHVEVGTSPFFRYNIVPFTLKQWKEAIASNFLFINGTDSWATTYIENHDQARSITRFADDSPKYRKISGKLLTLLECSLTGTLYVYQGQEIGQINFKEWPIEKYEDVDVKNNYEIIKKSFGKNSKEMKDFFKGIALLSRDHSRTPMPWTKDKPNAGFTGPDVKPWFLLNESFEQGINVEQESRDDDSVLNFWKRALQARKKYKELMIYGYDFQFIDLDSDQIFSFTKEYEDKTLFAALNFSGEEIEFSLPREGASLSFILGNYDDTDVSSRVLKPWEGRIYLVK

`COc1cc(-c2nc(-c3ccccc3)c(-c3ccccc3)n2-c2ccc(O)cc2)ccc1O` [IMI-13]: the inhibition at 10 µM (pH 7, read-out: Inhibition (I%) 10 (μM)) is > 100%. In addition, for the setting “pH 7, read-out: Inhibition (I%) 20 (μM)”, the inhibition at 20 µM came to 99.28 ± 0.51%. In addition, the inhibition at 30 µM (pH 7, read-out: Inhibition (I%) 30 (μM)) worked out at 95.2 ± 1%. Further, for the setting “pH 7, read-out: Inhibition (I%) 40 (μM)”, the inhibition at 40 µM amounted to 81.9 ± 1.3%. The inhibition at 50 µM (pH 7, read-out: Inhibition (I%) 50 (μM)) is 26 ± 1.2%.

(Values after publication PMC10117287 (RSC Advances, 2023).)
